pIC50: −log10 of the molar value. Like-named read-outs stand apart in the source and are kept apart here.

The term pIC50 denotes the IC50 on a negative log10 scale, so that one unit is a factor of ten.

The target of this experiment is Recombinant human factor D (Homo sapiens (Human), UniProt P00746). As to the kind of experiment: biochemical. It counts as biochemical. The conditions noted are these: read-out: IC50.
The mark [1] stands for this setting: Factor D inhibition data using Method 1, substrate Z-Lys-thiobenzyl, fluorescence readout.

Recombinant human factor D, sequence (P00746 26-253): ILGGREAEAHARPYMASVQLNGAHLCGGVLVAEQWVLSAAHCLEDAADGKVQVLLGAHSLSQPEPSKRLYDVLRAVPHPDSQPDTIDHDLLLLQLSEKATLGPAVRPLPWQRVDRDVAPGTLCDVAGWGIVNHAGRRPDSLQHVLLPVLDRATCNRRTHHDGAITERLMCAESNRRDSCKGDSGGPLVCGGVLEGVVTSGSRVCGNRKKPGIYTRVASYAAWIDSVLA
Procedure: Human Complement Factor D Assay: Method 1
Recombinant human factor D (expressed in E. coli and purified using standard methods) at 10 nM concentration is incubated with test compound at various concentrations for 1 hour at room temperature in 0.1 M Hepes buffer, pH 7.5, containing 1 mM MgCl2, 1 M NaCl and 0.05% CHAPS. […] IC50 values are calculated from percentage of inhibition of complement factor D-activity as a function of test compound concentration.

On to `CC(=O)c1nn(CC(=O)N2[C@@H]3C[C@@H]3C[C@H]2C(=O)N[C@@H]2CCCC(C)(C)C2)c2ccc(OCc3ncccn3)cc12` [Example 98, (1R,3S,5R)-2-{2-[3-Acetyl-5-(pyrimidin-2-ylmethoxy)-indazol-1-yl]-acetyl}-2-aza-bicyclo[3.1.0]hexane-3-carboxylic acid ((R)-3,3-dimethyl-cyclohexyl)-amide], for which the pIC50 was 7.96. On to `CC1(C)CCC[C@@H](NC(=O)[C@@H]2C[C@@H](F)CN2C(=O)Nc2cn(C(N)=O)c3ccccc23)C1` [Example 27, (2S,4R)-4-Fluoro-pyrrolidine-1,2-dicarboxylic acid 1-[(1-carbamoyl-1H-indol-3-yl)-amide] 2-[((R)-3,3-dimethyl-cyclohexyl)-amide]], for which the pIC50 under setting [1] was 7.40. On to `CC1=CC(NC(=O)[C@@H]2C[C@H]3C[C@H]3N2C(=O)Cn2nc(C(N)=O)c3ccccc32)CCC1` (stereo partly drawn) [Example 74, 1-{2-[(1R,3S,5R)-3-(3-Methyl-cyclohex-2-enylcarbamoyl)-2-aza-bicyclo[3.1.0]hex-2-yl]-2-oxo-ethyl}-1H-indazole-3-carboxylic acid amide], for which the pIC50 was 6.88.

On to `CC1(C)CCC[C@@H](NC(=O)[C@@H]2C[C@H]3C[C@H]3N2C(=O)Nc2cn(C(N)=O)c3ccccc23)C1` [Example 22, (1R,3S,5R)-2-Aza-bicyclo[3.1.0]hexane-2,3-dicarboxylic acid 2-[(1-carbamoyl-1H-indol-3-yl)-amide] 3-[((R)-3,3-dimethyl-cyclohexyl)-amide]], for which, under setting [1], the negative-log IC50 (pIC50) was 7.82.

`NC(=O)n1cc(NC(=O)N2[C@@H]3C[C@@H]3C[C@H]2C(=O)N[C@@H]2C=CCCC2)c2ccccc21` [Example 16, (1R,3S,5R)-2-Aza-bicyclo[3.1.0]hexane-2,3-dicarboxylic acid 2-[(1-carbamoyl-1H-indol-3-yl)-amide] 3-(S)-cyclohex-2-enylamide]: under setting [1], the pIC50 is 5.50.

Consider `CC(=O)c1nn(CC(=O)N2[C@@H]3C[C@@H]3C[C@H]2C(=O)N[C@H]2CCCC(C)(C)C2)c2ccc(OCc3ncccn3)cc12` [Example 97, (1R,3S,5R)-2-{2-[3-Acetyl-5-(pyrimidin-2-ylmethoxy)-indazol-1-yl]-acetyl}-2-aza-bicyclo[3.1.0]hexane-3-carboxylic acid ((S)-3,3-dimethyl-cyclohexyl)-amide], for which the pIC50 was 6.47.

Take `CC(=O)c1nn(CC(=O)N2[C@@H]3C[C@@H]3C[C@H]2C(=O)N[C@@H]2CCC[C@H](C(F)(F)F)C2)c2ccc(OCc3ncccn3)cc12` [Example 95, (1R,3S,5R)-2-{2-[3-Acetyl-5-(pyrimidin-2-ylmethoxy)-indazol-1-yl]-acetyl}-2-aza-bicyclo[3.1.0]hexane-3-carboxylic acid ((1R,3S)-3-trifluoromethyl-cyclohexyl)-amide]: under setting [1], the pIC50 is 7.60. On to `NC(=O)c1nn(CC(=O)N2[C@@H]3C[C@@H]3C[C@H]2C(=O)NC2CCC(F)(F)C2)c2ccccc12` (stereo partly drawn) [Example 52, 1-{2-[(1R,3S,5R)-3-(3,3-Difluoro-cyclopentylcarbamoyl)-2-aza-bicyclo[3.1.0]hex-2-yl]-2-oxo-ethyl}-1H-indazole-3-carboxylic acid amide], for which the negative-log IC50 (pIC50) under setting [1] is 6.00. As for `CC(=O)c1nn(CC(=O)N2[C@@H]3C[C@@H]3C[C@H]2C(=O)N[C@@H]2C[C@@H](O)CC(C)(C)C2)c2ccccc12` [Example 125, (1R,3S,5R)-2-(2-(3-acetyl-1H-indazol-1-yl)acetyl)-N-((1S,5S)-5-hydroxy-3,3-dimethylcyclohexyl)-2-azabicyclo[3.1.0]hexane-3-carboxamide], the negative logarithm of the IC50 (pIC50) was 5.96. Still for that read-out and setting: next, `CC(=O)c1nn(CC(=O)N2[C@@H]3C[C@@H]3C[C@H]2C(=O)NN2CCCC(C)(C)C2)c2ccc(OCc3ncccn3)cc12` [Example 30, (1R,3S,5R)-2-{2-[3-Acetyl-5-(pyrimidin-2-ylmethoxy)-indazol-1-yl]-acetyl}-2-aza-bicyclo[3.1.0] hexane-3-carboxylic acid (3,3-dimethyl-piperidin-1-yl)-amide]: 8.00.

For the origin of these results see patent US9487483B2, “Complement pathway modulators and uses thereof” (priority 2012, dated 2016).
